Assay results taken from DBAASP.
Values after ≈ are worked out from the molar mass of the structure shown. Values joined by “and” are separate entries in the source; they are usually repeats but may differ in a detail not shown here. Identical values can stand only once.

Legend:
Test in all cases: ≥ marks a high value that may be exact or a test limit, other limits are often not marked, values filed in µg/mL are converted to µM
[1] = system: Bacillus subtilis ATCC 23857
[2] = system: Escherichia coli ATCC 25922
[3] = system: Escherichia coli ATCC 700926
Escherichia coli BL21 = system: Escherichia coli BL21
[4] = system: Pseudomonas aeruginosa ATCC 27853
[5] = system: Pseudomonas aeruginosa ATCC 9027
[6] = system: Staphylococcus aureus ATCC 43300
[7] = system: Staphylococcus aureus ATCC 6538P
[8] = system: Staphylococcus aureus ATCC 6538
[9] = system: Staphylococcus aureus USA 300
[10] = system: Staphylococcus aureus USA 400
[11] = system: Staphylococcus epidermidis ATCC 12228
[12] = system: Bacillus subtilis IFO 3513
[13] = system: Escherichia coli IFO 12734
[14] = system: Micrococcus luteus ATCC 9341
[15] = system: Staphylococcus aureus IFO 12732
[16] = system: Acinetobacter baumannii NM109
[17] = system: Acinetobacter baumannii NM124
[18] = system: Acinetobacter baumannii NM35
[19] = system: Acinetobacter baumannii NM75
[20] = system: Acinetobacter baumannii NM8
[21] = system: Candida albicans ATCC 90028
[22] = system: Enterococcus faecalis ATCC 29212
[23] = system: Escherichia coli ATCC 25726
[24] = system: Klebsiella pneumoniae ATCC 700603
[25] = system: Staphylococcus aureus 145/08
[26] = system: Staphylococcus aureus ATCC 25923
[27] = system: Staphylococcus epidermidis RP62A/1
[28] = system: Staphylococcus epidermidis RP62A
[29] = system: Staphylococcus epidermidis T37/8
[30] = system: Staphylococcus epidermidis T6/19
[31] = system: Stenotrophomonas maltophilia B32/1
[32] = system: Stenotrophomonas maltophilia B32/4
[33] = system: Stenotrophomonas maltophilia B5/5
[34] = system: Stenotrophomonas maltophilia B6/2
[35] = system: Stenotrophomonas maltophilia U8908
[36] = system: Salmonella enterica subsp. enterica serovar Typhi
[37] = system: Staphylococcus epidermidis
Vibrio cholerae = system: Vibrio cholerae
Candida albicans = system: Candida albicans
Escherichia coli = system: Escherichia coli
Listeria monocytogenes = system: Listeria monocytogenes
[38] = system: Neisseria gonorrhoeae F-62
[39] = system: Neisseria gonorrhoeae FA-19
[40] = system: Acinetobacter baumannii ATCC 19606
[41] = system: Candida albicans NCTC 3179
[42] = system: Enterococcus faecalis NCTC 12697
[43] = system: Lactobacillus acidophilus NCTC 1723
[44] = system: Pseudomonas aeruginosa 8600
[45] = system: Streptococcus mutans NCTC 10449

## CC[C@H](C)[C@H](NC(=O)[C@H](CCCCN)NC(=O)[C@H](CCCCN)NC(=O)[C@@H](NC(=O)[C@@H](NC(=O)[C@H](CCCCN)NC(=O)[C@H](CCCCN)NC(=O)[C@@H](NC(=O)[C@@H](NC(=O)[C@H](CCCCN)NC(=O)[C@H](CCCCN)NC(=O)[C@@H](NC(=O)[C@@H](NC(=O)CN)[C@@H](C)CC)[C@@H](C)CC)[C@@H](C)CC)[C@@H](C)CC)[C@@H](C)CC)[C@@H](C)CC)C(=O)O [GIIKKIIKKIIKKI]
[1]
  MIC: 2.4 µM (≈ 3.93 µg/mL)
[2]
  MIC: 5.7 µM (≈ 9.33 µg/mL)
[3]
  MIC: 15.6 µM (≈ 25.5 µg/mL)
Escherichia coli BL21
  MIC: 15.6 µM (≈ 25.5 µg/mL)
[4]
  MIC: 15.6 µM (≈ 25.5 µg/mL)
[5]
  MIC: 9.3 µM (≈ 15.2 µg/mL)
[6]
  MIC: 125 µM (≈ 205 µg/mL)
[7]
  MIC: 7.8 µM (≈ 12.8 µg/mL)
[8]
  MIC: 128 µM and 62.5 µM
[9]
  MIC: ≥ 125 µM
[10]
  MIC: ≥ 125 µM
[11]
  MIC: 3.9 µM (≈ 6.38 µg/mL)

## CC[C@H](C)[C@H](N)C(=O)N[C@@H](CC(C)C)C(=O)N1CCC[C@H]1C(=O)N[C@@H](Cc1ccc(O)cc1)C(=O)N[C@@H](CCCCN)C(=O)N[C@@H](Cc1ccc(O)cc1)C(=O)N1CCC[C@H]1C(=O)N[C@@H](Cc1ccc(O)cc1)C(=O)N[C@@H](Cc1ccc(O)cc1)C(=O)N1CCC[C@H]1C(=O)N[C@@H](Cc1ccc(O)cc1)C(=O)N[C@@H](CCCN=C(N)N)C(=O)N[C@@H](CCCN=C(N)N)C(N)=O [ILPYKYPYYPYRR]
[12]
  MIC: 14 µM (≈ 25 µg/mL)
[13]
  MIC: ≥ 55.8 µM
[14]
  MIC: 6.3 µM (≈ 11.3 µg/mL)
[15]
  MIC: 14 µM (≈ 25 µg/mL)

## CC[C@H](C)[C@H](NC(=O)[C@H](C)NC(=O)[C@@H](NC(=O)[C@H](C)NC(=O)CNC(=O)[C@H](CCCCN)NC(=O)[C@@H](NC(=O)[C@H](C)NC(=O)CNC(=O)[C@H](CCCCN)NC(=O)[C@H](CC(C)C)NC(=O)[C@@H](NC(=O)[C@H](CCCCN)NC(=O)[C@H](CCCCN)NC(=O)[C@H](CC(C)C)NC(=O)[C@@H](NC(=O)[C@H](CC(=O)O)NC(=O)[C@H](CCCCN)NC(=O)[C@@H](NC(=O)[C@H](CCCCN)NC(=O)[C@@H]1CCCN1C(=O)[C@H](CO)NC(=O)[C@H](CC(C)C)NC(=O)[C@H](CCCCN)NC(=O)[C@@H](N)CC(C)C)[C@@H](C)O)[C@@H](C)O)C(C)C)[C@@H](C)CC)[C@@H](C)CC)C(=O)N[C@@H](C)C(=O)N[C@@H](CO)C(=O)N[C@@H](CCSC)C(=O)N[C@@H](C)C(N)=O [LKLSPKTKDTLKKVLKGAIKGAIAIASMA]
[16]
  MIC: 5 µM (≈ 15 µg/mL)
[17]
  MIC: 2.5 µM (≈ 7.49 µg/mL)
[18]
  MIC: 5 µM (≈ 15 µg/mL)
[19]
  MIC: 2.5 µM (≈ 7.49 µg/mL)
[20]
  MIC: 5 µM (≈ 15 µg/mL)
[21]
  MIC: ≥ 80 µM
[22]
  MIC: 20 µM (≈ 59.9 µg/mL)
[23]
  MIC: 10 µM and 5 µM
[24]
  MIC: 10 µM (≈ 29.9 µg/mL)
[4]
  MIC: 20 µM (≈ 59.9 µg/mL)
[25]
  MIC: 2.5 µM (≈ 7.49 µg/mL)
[26]
  MIC: 2.5 µM (≈ 7.49 µg/mL)
[27]
  MIC: 1.25 µM (≈ 3.74 µg/mL)
[28]
  MIC: 1.25 µM (≈ 3.74 µg/mL)
[29]
  MIC: 1.25 µM (≈ 3.74 µg/mL)
[30]
  MIC: 1.25 µM (≈ 3.74 µg/mL)
[31]
  MIC: 2.5 µM (≈ 7.49 µg/mL)
[32]
  MIC: 1.25 µM (≈ 3.74 µg/mL)
[33]
  MIC: 2.5 µM (≈ 7.49 µg/mL)
[34]
  MIC: 1.25 µM (≈ 3.74 µg/mL)
[35]
  MIC: 5 µM (≈ 15 µg/mL)

## CC(C)C[C@H](NC(=O)[C@H](CO)NC(=O)CNC(=O)[C@H](C)NC(=O)[C@@H](N)CC(N)=O)C(=O)N[C@@H](CC(C)C)C(=O)N[C@@H](CO)C(=O)NCC(=O)N[C@@H](Cc1c[nH]c2ccccc12)C(=O)NCC(=O)O [NAGSLLSGWG]
[36]
  MIC: 0.687 µM (≈ 0.66 µg/mL)
[37]
  MIC: 0.687 µM (≈ 0.66 µg/mL)
Vibrio cholerae
  MIC: 3 µM (≈ 2.88 µg/mL)

## CC(C)C[C@H](NC(=O)[C@H](CCCNC(=N)N)NC(=O)CNC(=O)CNC(=O)[C@@H](N)CCCNC(=N)N)C(=O)N[C@H]1CSSC[C@@H](C(=O)N[C@H](C(=O)NCC(=O)N[C@@H](CCCNC(=N)N)C(N)=O)C(C)C)NC(=O)[C@H](C(C)C)NC(=O)[C@@H]2CSSC[C@H](NC(=O)[C@H](Cc3ccc(O)cc3)NC1=O)C(=O)N[C@@H](CCCNC(=N)N)C(=O)N1CCC[C@H]1C(=O)N[C@@H](CCCNC(=N)N)C(=O)N[C@@H](Cc1ccccc1)C(=O)N2 [RGGRLCYCRPRFCVCVGR]
Candida albicans
  MIC: 7.42 µM (≈ 15.6 µg/mL)
Escherichia coli
  MIC: 1.38 µM (≈ 2.89 µg/mL)
Listeria monocytogenes
  MIC: 1.19 µM (≈ 2.49 µg/mL)
[38]
  MIC: 0.666 µM (≈ 1.4 µg/mL)
[39]
  MIC: 0.761 µM (≈ 1.6 µg/mL)

## CSCC[C@H](NC(=O)[C@H](CC(C)C)NC(=O)CNC(=O)[C@H](Cc1ccccc1)NC(=O)[C@H](Cc1ccccc1)NC(=O)[C@H](CCC(N)=O)NC(=O)[C@H](CCC(N)=O)NC(=O)[C@@H]1CCCN1C(=O)[C@H](CCCCN)NC(=O)[C@@H]1CCCN1C(=O)[C@@H](N)CCCN=C(N)N)C(N)=O [RPKPQQFFGLM]
[40]
  MIC: > 94.9 µM
[41]
  MIC: 6.01 µM (≈ 8.09 µg/mL)
[42]
  MIC: ≥ 371 µM
[43]
  MIC: ≥ 54.9 µM
[44]
  MIC: ≥ 94.9 µM
[45]
  MIC: ≥ 127 µM
